Where “and” joins values, the source holds several entries; their conditions need not be identical. Equal entries are not always repeated.

This note sets out measurements from patent US8143259B2, “Cold menthol receptor antagonists” (Janssen Pharmaceutica, NV, priority 2008, dated 2012).

This test concerns the target T1, canine TRPM8 (Canis lupus familiaris, UniProt Q1A7N1).
T1 construct: expressed in transfected cells
Nature of the test: In Vitro Canine TRPM8 Functional Assay (Ca2+ fluorescence, icilin activation). The conditions noted are these: for inhibition at 0.2 µM: HEK293, 0.2 μM compound; for IC50: HEK293 cells stably expressing canine TRPM8, icilin activation, Ca2+ fluorescence; for % Inh @ 0.2 μM: 0.2 μM compound; for inhibition at 1 µM: HEK293, 1 μM compound; for inhibition at 0.5 µM: HEK293, 0.5 μM compound; for % Inh @ 1 μM: 1 μM compound. In kind it is cell-based. The protocol: The functional activity of compounds of the formula (I) was determined by measuring changes in intracellular calcium concentration using a Ca^2+-sensitive fluorescent dye. The changes in fluorescent signal were monitored by a fluorescence plate reader, either a FLIPR™ (Molecular Devices) or FDSS (Hamamatsu). Increases in intracellular Ca^2+ concentration were readily detected upon activation with icilin.
HEK293 cells stably expressing canine TRPM8 were routinely grown as monolayers in Dulbecco's minimum essential medium supplemented with 10% FBS, 2 mM L-glutamine, 100 units/mL penicillin, 100 ug/mL streptomycin and 400 μg/mL G418. Cells were maintained in 5% CO2 at 37° C. At 24 hrs prior to assay, cells were seeded in black wall, clear-base poly-D-lysine coated 384-well plates (BD Biosciences, NJ, USA) at a density of 5,000 cells per well in culture medium and grown overnight in 5% CO2 at 37° C. On assay day, growth media was removed and cells were loaded with Calcium 3 Dye (Molecular Devices) for 35 min at 37° C., under 5% CO2 and then for 25 min at room temperature and atmosphere. Subsequently, cells were tested for agonist-induced increases in intracellular Ca^2+ levels using FLIPR™ or FDSS. Cells were challenged with compounds of the formula (I) (at varying concentrations) and intracellular Ca^2+ was measured for 5 min prior to the addition of icilin to all wells to achieve a final concentration that produces approximately an 80% maximal response.
Maximal fluorescence intensity (FI) achieved upon addition of icilin was exported from the FLIPR or FDSS software and further analyzed using GraphPad Prism 3.02 (Graph Pad Software Inc., CA, U.S.A.). Basal FI was subtracted prior to normalizing data to percent of maximal response. Curves were generated using the average of quadruplicate wells for each data point, were analyzed using nonlinear regression of either sigmoidal dose response or sigmoidal dose response (variable slope).

Where [1] appears, read: canine TRPM8 HEK293, icilin, 0.2 µM.

T1 sequence (Q1A7N1 1-1104): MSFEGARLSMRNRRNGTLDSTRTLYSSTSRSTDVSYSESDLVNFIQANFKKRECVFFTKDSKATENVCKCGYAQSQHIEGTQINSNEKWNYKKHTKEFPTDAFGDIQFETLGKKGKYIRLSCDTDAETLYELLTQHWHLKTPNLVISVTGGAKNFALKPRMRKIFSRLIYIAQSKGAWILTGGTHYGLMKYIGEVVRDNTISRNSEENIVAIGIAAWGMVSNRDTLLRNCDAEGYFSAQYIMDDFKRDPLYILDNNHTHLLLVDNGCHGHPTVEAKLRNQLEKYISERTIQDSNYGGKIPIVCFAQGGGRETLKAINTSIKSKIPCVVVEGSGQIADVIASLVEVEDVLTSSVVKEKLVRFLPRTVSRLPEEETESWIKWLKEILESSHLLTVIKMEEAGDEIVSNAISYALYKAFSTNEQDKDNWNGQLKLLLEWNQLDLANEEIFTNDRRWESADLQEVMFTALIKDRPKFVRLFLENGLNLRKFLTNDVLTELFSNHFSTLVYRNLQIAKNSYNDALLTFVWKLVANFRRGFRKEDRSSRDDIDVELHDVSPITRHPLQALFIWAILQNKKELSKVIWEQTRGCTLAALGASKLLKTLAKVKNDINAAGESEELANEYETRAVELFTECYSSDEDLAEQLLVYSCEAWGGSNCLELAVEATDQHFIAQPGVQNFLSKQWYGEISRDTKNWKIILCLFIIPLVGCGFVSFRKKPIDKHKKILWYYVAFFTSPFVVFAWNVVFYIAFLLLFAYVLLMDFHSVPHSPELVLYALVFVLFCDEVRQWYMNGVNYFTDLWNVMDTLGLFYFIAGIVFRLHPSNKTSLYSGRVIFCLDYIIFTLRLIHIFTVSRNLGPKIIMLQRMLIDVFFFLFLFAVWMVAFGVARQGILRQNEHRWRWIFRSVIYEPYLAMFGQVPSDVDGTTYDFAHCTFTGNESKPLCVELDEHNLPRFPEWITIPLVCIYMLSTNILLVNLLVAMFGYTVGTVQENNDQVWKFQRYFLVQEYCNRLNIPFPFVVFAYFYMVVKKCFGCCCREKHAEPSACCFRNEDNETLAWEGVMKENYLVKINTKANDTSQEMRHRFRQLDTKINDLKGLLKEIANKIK

`O=C(C(Nc1ccccc1F)c1cc2cccnc2s1)N1CCCC1c1ccccc1F` (centres unmarked) [Cpd 328]: half-maximal inhibition (IC50) required 0.008 µM. Besides, under “canine TRPM8 HEK293, icilin”, the inhibition (usually the relative decrease from the control value, in per cent) at 0.2 µM came out at 101%.

Consider `O=C(C(Nc1ccccc1F)c1ccc(Br)cc1)N1CCCC1c1ccccc1F` (mixture of isomers) [Cpd 180], for which the IC50 (as a rule, the concentration at which inhibition is half-maximal) came out at 0.009 µM. Also, the “% Inh @ 0.2 μM” value (canine TRPM8 HEK293, icilin) stood at 97%. On to `O=C(C(Nc1ccccc1F)c1cnc2ccccc2c1)N1CCC[C@H]1c1ccccc1F` (single isomer, unassigned) [Cpd 280], for which the 50% inhibitory concentration (IC50) was 0.004 µM and 0.008 µM. The “% Inh @ 0.2 μM” value under setting [1] is 101%. Also, the inhibition at 0.2 µM (canine TRPM8 HEK293, icilin) was determined as 93%.

Take `O=C(C(Nc1ccccc1F)c1ccc(-c2ccccc2)nc1)N1CCC[C@H]1c1ccccc1F` (single isomer, unassigned) [Cpd 307]: the IC50 was 0.004 µM. In addition, where the note is “canine TRPM8 HEK293, icilin”, the inhibition at 0.2 µM was 102%. As to `O=C(C(Nc1ccccc1F)c1ccc(C(F)(F)F)cc1)N1CCCC1c1ccccc1` (single isomer, unassigned) [Cpd 191], the IC50 came out at 0.005 µM. For the same compound, the “% Inh @ 0.2 μM” value under setting [1] was 100%. Consider `O=C(O)c1cccc(-c2ccc(C(Nc3ccccc3F)C(=O)N3CCCC3c3ccccc3F)cc2)c1` (mixture of isomers) [Cpd 310], for which the “% Inh @ 0.2 μM” value (canine TRPM8 HEK293, icilin) turned out to be 41%.

As for `O=C(C(Nc1ccccc1F)c1cc2ccccc2s1)N1CCCC1c1ccccc1F` (mixture of isomers) [Cpd 245], the IC50 came to 0.0026 µM. Further, where the note is “canine TRPM8 HEK293, icilin”, the “% Inh @ 0.2 μM” value is on record as 98%.

`CC(C)(C)c1ccc(C(Nc2ccccc2)C(=O)N2CCC(O)(c3ccccn3)CC2)cc1` (centres unmarked) [Cpd 4] showed an IC50 of 0.291 µM. Further, the inhibition at 1 µM (canine TRPM8 HEK293, icilin) was 102%. For the compound `O=C(C(Nc1ccc(F)cc1F)c1ccc(Cl)cc1)N1CCCC1c1ccccc1` (centres unmarked) [Cpd 125], half-maximal inhibition (IC50) was put at 0.0623 µM. Moreover, the inhibition at 0.5 µM (canine TRPM8 HEK293, icilin) was determined as 96%.

As to `O=C(C(Nc1ccccc1F)c1cc2ccccc2s1)N1Cc2cccnc2C1` (centres unmarked) [Cpd 370], the IC50 is 0.12 µM. Regarding `O=C(C(NC1CCCCC1)c1ccc(C(F)(F)F)cc1)N1CCc2ccccc21` (racemic) [Cpd 41], the “% Inh @ 0.5 μM” value (0.5 μM compound, canine TRPM8 HEK293, icilin) is given as 70.995%. As to `O=C(C(Nc1ccccc1F)c1ccc(-c2ccncc2)cc1)N1CCCC1c1ccccc1F` (centres unmarked) [Cpd 294], the IC50 was 0.022 µM and 0.027 µM. Also, the “% Inh @ 0.2 μM” value under setting [1] was found to be 102%. In addition, the inhibition at 0.2 µM (canine TRPM8 HEK293, icilin) worked out at 92%.

For `CC(=O)N(c1ccccc1F)[C@H](C(=O)N1CCC[C@H]1c1ccccc1F)c1ccc(C(F)(F)F)cc1` [Cpd 318, N-(2-Fluoro-phenyl)-N-[2-[(2S)-2-(2-fluoro-phenyl)-pyrrolidin-1-yl]-2-oxo-(1S)-1-(4-trifluoromethyl-phenyl)-ethyl]-acetamide], for the setting “canine TRPM8 HEK293, icilin”, the inhibition at 0.2 µM is 47%. Consider `O=C(O)c1cccc(C2CCCN2C(=O)C(Nc2ccccc2F)c2cc3ccccc3s2)c1` (centres unmarked) [Cpd 326, 3-{1-[2-Benzo[b]thiophen-2-yl-2-(2-fluoro-phenylamino)-acetyl]-pyrrolidin-2-yl}-benzoic acid], for which it took 0.078 µM to reach half-maximal inhibition (IC50). For the same compound, the inhibition at 0.2 µM (canine TRPM8 HEK293, icilin) came to 97%.

As to `O=C(C(Cc1c(F)cccc1F)c1ccc(C(F)(F)F)cc1)N1CCCC1c1cccnc1` (mixture of isomers) [Cpd 268], the “% Inh @ 0.2 μM” value under setting [1] was 13% and 15%. The compound `O=C(C(Nc1ccccc1F)c1ccc(N2CCOCC2)nc1)N1CCC[C@H]1c1ccccc1F` (mixture of isomers) [Cpd 358] registered an IC50 of 0.008 µM. Moreover, the inhibition at 0.2 µM (canine TRPM8 HEK293, icilin) worked out at 100%. For the compound `O=C(C(c1ccc(C(F)(F)F)cc1)N1CCc2ccccc21)N1CCCC1c1ccccc1F` (centres unmarked) [Cpd 228], half-maximal inhibition (IC50) required 0.0254 µM. Regarding `COC(=O)C1CCC(c2ccccc2)N1C(=O)C(Nc1ccccc1)c1ccc(Cl)cc1` (single isomer, unassigned) [Cpd 212], the midpoint of inhibition, the IC50, lay at 0.017 µM. For the same compound, the “% Inh @ 0.2 μM” value under setting [1] is on record as 99%. As for `O=C(C(Nc1cccc(F)c1F)c1ccc(Cl)cc1)N1Cc2ccccc2C1` (centres unmarked) [Cpd 169], the IC50 was found to be 0.142 µM. In addition, the inhibition at 0.5 µM (canine TRPM8 HEK293, icilin) is 92%. In turn, `O=C(C(Nc1ccccc1)c1ccc(C(F)(F)F)cc1)N1CCCC1c1ccccc1F` (single isomer, unassigned) [Cpd 45] came in with an IC50 of 0.105 µM. For the setting “canine TRPM8 HEK293, icilin”, the inhibition at 0.5 µM was found to be 101%.

In turn, `COc1ccccc1C1CCCN1C(=O)C(Nc1ccc(F)cc1)c1ccc(Cl)cc1` (centres unmarked) [Cpd 118] had an IC50 of 0.0317 µM. Further, the inhibition at 0.5 µM (canine TRPM8 HEK293, icilin) is 100%.

In turn, `COc1ccccc1C1CCCN1C(=O)C(Nc1ccccc1F)c1ccc(C(F)(F)F)cc1` (centres unmarked) [Cpd 148] returned an IC50 of 0.012 µM. In addition, the inhibition at 0.5 µM (canine TRPM8 HEK293, icilin) was 99%.

Turning to `O=C(C(Nc1ccccc1F)c1ccc(Br)cc1)N1CCCC1c1ccccc1` (centres unmarked) [Cpd 91], the IC50 came out at 0.014 µM. The inhibition at 0.5 µM (canine TRPM8 HEK293, icilin) was 97%. `O=C(C(Nc1ccccc1F)c1ccc(-c2ccccn2)cc1)N1CCCC1c1ccccc1Cl` (single isomer, unassigned) [Cpd 339] had an IC50 of 0.027 µM. Also, the “% Inh @ 0.2 μM” value under setting [1] stood at 97%. For the compound `COC(=O)[C@@H]1CC[C@H](c2ccccc2)N1C(=O)C(Nc1c(F)cccc1F)c1ccc(Br)cc1` (single isomer, unassigned) [Cpd 205], under setting [1], the “% Inh @ 0.2 μM” value was found to be 62%.

For `CC(C)(C)c1ccc(C(Nc2ccccc2)C(=O)N2CCCC2c2ccc(Cl)cc2)cc1` (single isomer, unassigned) [Cpd 7], inhibition was half-maximal at 0.636 µM (IC50). Moreover, the “% Inh @ 1 μM” value (canine TRPM8 HEK293, icilin) is on record as 89.12%.

On to `O=C(C(Nc1ccccc1)c1ccc(Br)cc1)N1CCCC1c1ccccc1` (centres unmarked) [Cpd 70], for which the IC50 came to 0.023 µM. In addition, where the note is “canine TRPM8 HEK293, icilin”, the inhibition at 0.5 µM amounted to 103%. On the same counts, the results for `O=C(C(Nc1ccccc1)c1ccc(C(F)(F)F)cc1)N1CCCC1c1ccccn1` (centres unmarked) [Cpd 50] are 0.376 µM and 83.6%. Regarding `O=C(C(Nc1ccccc1F)c1ccc(C(F)(F)F)cc1)N1CCCC1c1ccccc1Cl` (single isomer, unassigned) [Cpd 198], the IC50 is 0.019 µM and 0.035 µM. Besides, under setting [1], the “% Inh @ 0.2 μM” value is recorded as 101%. The compound `CC(C)(C)c1ccc(C(Nc2ccccc2)C(=O)N2CCC[C@H]2CNc2ccccc2)cc1` (single isomer, unassigned) [Cpd 10] returned an IC50 of 0.517 µM. Moreover, the inhibition at 1 µM (canine TRPM8 HEK293, icilin) came to 102%. Compound `COc1ccccc1C1CCCN1C(=O)C(Nc1cccc(F)c1F)c1ccc(Cl)cc1` (centres unmarked) [Cpd 167] yielded an IC50 of 0.034 µM. Further, under “canine TRPM8 HEK293, icilin”, the inhibition at 0.5 µM was found to be 97%. Turning to `COc1ccccc1[C@@H]1CCCN1C(=O)C(Nc1ccccc1F)c1ccc(N2CCCCC2)nc1` (mixture of isomers) [Cpd 335], inhibition was half-maximal at 0.026 µM (IC50). Moreover, the inhibition at 0.2 µM (canine TRPM8 HEK293, icilin) came out at 101%. On to `O=C(C(Nc1ccc(F)cc1)c1ccc(C(F)(F)F)cc1)N1Cc2ccccc2C1` (centres unmarked) [Cpd 77], for which the IC50 was 0.084 µM. Moreover, the inhibition at 0.5 µM (canine TRPM8 HEK293, icilin) was 98%. The compound `O=C(C(Nc1ccccc1F)c1ccc(C(F)(F)F)cc1)N1CCCC1c1ccncc1` (centres unmarked) [Cpd 197] registered an IC50 of 0.019 µM. Further, the inhibition at 0.2 µM (canine TRPM8 HEK293, icilin) came to 97%.

Consider `CC(C)(C)c1ccc(C(Nc2ccccc2)C(=O)N2CCCC2c2cccc(Cl)c2)cc1` (single isomer, unassigned) [Cpd 9], for which half-maximal inhibition (IC50) required 0.161 µM. For the same compound, for the setting “canine TRPM8 HEK293, icilin”, the “% Inh @ 1 μM” value is reported as 102.98%. Regarding `O=C(C(Nc1ccccc1)c1ccccn1)N1Cc2ccccc2C1` (racemic) [Cpd 216], the “% Inh @ 0.2 μM” value (canine TRPM8 HEK293, icilin) is reported as 32%. The compound `O=C([C@@H](Nc1ccccc1F)c1ccc(C(F)(F)F)cc1)N1CCC[C@H]1c1ccccc1F` (single isomer, unassigned) [Cpd 152] gave an IC50 of 0.0613 µM. In addition, the inhibition at 0.5 µM (canine TRPM8 HEK293, icilin) amounted to 101%.
